# Assay results from patent US20080176870A1, “Heterobicyclic metalloprotease inhibitors” (priority 2006, published 2008).
# Molecular target: T1, catalytic domain of MMP-13 enzyme (Homo sapiens, UniProt P45452)
# T1 construct: 10 μL of a 50 nM stock solution of catalytic domain of MMP-13 enzyme (produced by Alantos)
# Experiment: Assay for determining MMP-13 inhibition (fluorescent substrate)
# Format: biochemical
# Settings: Table 1, Summary of MMP-13 Activity for Compounds; read-out: MMP-13 Activity (IC50 MMP-13), Group
# Experimental: Assay for Determining MMP-13 Inhibition
# The typical assay for MMP-13 activity is carried out in assay buffer comprised of 50 mM Tris, pH 7.5, 150 mM NaCl, 5 mM CaCl2 and 0.05% Brij-35. Different concentrations of tested compounds are prepared in assay buffer in 50 μL aliquots. 10 μL of a 50 nM stock solution of catalytic domain of MMP-13 enzyme (produced by Alantos) is added to the compound solution. The mixture of enzyme and compound in assay buffer is thoroughly mixed and incubated for 10 min at room temperature. Upon the completion of incubation, the assay is started by addition of 40 μL of a 12.5 μM stock solution of MMP-13 fluorescent substrate (Calbiochem, Cat. No. 444235). The time-dependent increase in fluorescence is measured at the 320 nm excitation and 390 nm emission by automatic plate multireader. The IC50 values are calculated from the initial reaction rates.
compound,measurement,value
"Cc1c(C(=O)O)ccc2c1CCC2NCc1cc(C(=O)NCc2ccc(F)c(F)c2)nc2ccnn12 (stereo not shown) [Example 29, 1-{[5-(3,4-difluoro-benzylcarbamoyl)-pyrazolo[1,5-a]pyrimidin-7-ylmethyl]-amino}-4-methyl-indan-5-carboxylic acid]",IC50,< 200 nM
"Cc1c(C(=O)O)ccc2c1CCC2N(CC(=O)O)Cc1cc(C(=O)NCc2ccc(F)c(F)c2)nc2ccnn12 (stereo not shown) [Example 32, 1-{carboxymethyl-[5-(3,4-difluoro-benzylcarbamoyl)-pyrazolo[1,5-a]pyrimidin-7-ylmethyl]-amino}-4-methyl-indan-5-carboxylic acid]",IC50,< 200 nM
O=C1COc2ccc(CNC(=O)c3cc(-c4nn[nH]n4)n4ncc(F)c4n3)cc2N1 [Example 141],IC50,< 200 nM
CC(C)(C)n1nnc(-c2cc(C(=O)NCc3ccc4c(c3)NC(=O)CO4)nc3ccnn23)n1 [Example 152],IC50,< 200 nM
O=C1COc2ccc(CNC(=O)c3cc(-c4nnn(Cc5ccc(C(=O)O)cc5)n4)n4nccc4n3)cc2N1 [Example 160],IC50,< 200 nM
CC(C)(C)c1noc(-c2cc(C(=O)NCc3ccc4c(c3)NC(=O)CO4)nc3c(F)cnn23)n1 [Example 163],IC50,< 200 nM
O=C1COc2ccc(CNC(=O)c3cc(C(F)(F)F)n4ncnc4n3)cc2N1 [Example 188],IC50,201 to 20000 nM
N#Cc1cc(C(=O)NCc2ccc3c(c2)NC(=O)CO3)nc2ncnn12 [Example 190],IC50,201 to 20000 nM
Cc1cc(CNC(=O)c2cc(C(=O)O)n3nccc3n2)ccc1F [Example 193],IC50,201 to 20000 nM
Nc1c(N2CCc3ccc(CNC(=O)c4cc(C(=O)O)n5ncnc5n4)cc3C2)c(=O)c1=O [Example 195],IC50,201 to 20000 nM
O=C(NCC12CCC(C(=O)O)(CC1)CC2)Nc1cc(C(=O)NCc2ccc(F)cc2)nc2ccnn12 [Example 208],IC50,< 200 nM
O=C(NCc1ccc(F)cc1)c1cc(NC(=O)C23CCC(C(=O)O)(CC2)CC3)n2nccc2n1 [Example 209],IC50,201 to 20000 nM
Cc1c(C(=O)O)ccc2c1CC[C@@H]2NC(=O)c1cc(C(=O)NCc2ccc3c(c2)NC(=O)CO3)nc2ccccc12 [Example 211],IC50,201 to 20000 nM
